Tested on: Cuterebra sp.
Assay: In vivo larvicidal activity against Cuterebra sp. in artificially infested mice (dermal dip)
Conditions: mice infested with 5 newly-hatched larvae, body dipped in emulsion 48 h later, larvae examined four days after treatment; for Dermal (mice) Dosage % LC50: concentration killing 50% of larvae; for Dermal (mice) Dosage % LC90: concentration killing 90% of larvae
Procedure: The larvidical activity of the compounds of the invention may be conveniently evaluated by a method accepted by the U.S. Agricultural Research Service, in which mice infected with Cuterebra spp. are treated topically with the compounds under evaluation.
White mice are artificially infested nasally, buccally, or ocularly with 5 newly-hatched larvae of Cuterebra sp. For dermal tests, 48 hours later a plastic collar is placed around the neck of each male mouse, and the portion of the body behind the collar is dipped in 200 ml of an emulsion of a test compound. A standard emulsifiable concentrate consists of 25 parts of test compound, 65 parts of xylene and 10 parts octylphenoxy polyethoxy ethanol of average molecular weight equal to 628 and having from 9 to 10 ethylene oxide units.
The skin of each mouse is examined carefully for encapsulated live larvae four days after treatment. Effectiveness of the treatments is determined by comparing numbers of larvae encapsulated in treated mice with numbers found in untreated control mice. Usually 3 mice/concentration are treated. if mice or the larvae are killed at the initial concentration of 1%, lower concentrations (0.6, 0.3, 0.2, 0.1%, etc.) are tested until there is no systemic activity or the mice survive.
Mortality data are subjected to log-prohibit analysis in order to determine dosages or concentrations that kill 50 or 90% of the larvae.

CC(C)C(C(=O)OC(C#N)c1cccc(Oc2ccccc2)c1)c1ccc(OC(F)F)cc1 (racemic) [(±)-α-cyano-m-phenoxybenzyl (+)-α-isopropyl-4-difluoromethox] [(±)-α-Cyano-m-phenoxybenzyl(+)-α-isopropyl 4-difluoromethoxyphenylacetate]
Dermal (mice) Dosage % LC50: .0030% | Dermal (mice) Dosage % LC90: .0056%

CC(C)C(C(=O)OC(C#N)c1cccc(Oc2ccccc2)c1)c1ccc(OC(F)F)cc1 (stereo not drawn) [α-cyano-m-phenoxybenzyl α-isopropyl-4-difluoromethoxyphenyla] [α-Cyano-m-phenoxybenzyl α-isopropyl-4-difluoromethoxyphenylacetate]
Dermal (mice) Dosage % LC50: .0067% | Dermal (mice) Dosage % LC90: .015%
